Where two headings read alike, the source gives them in different places.
Assays:
Assay type in all cases: cell-based
Nav 1.5 = Nav 1.5 (Homo sapiens (Human), UniProt Q14524); test: Nav 1.5 in vitro PX assay (PatchXpress whole cell voltage clamp); settings: 293 cells stably transfected with Nav 1.5
Outline: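 HEK293 cells stably expressing Nav 1.5, whole-cell voltage clamp held at −50 mV; 20 msec test pulses to 0 mV at 0.1 Hz, each preceded by a step to −120 mV.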

Nav 1.7 [1] = molecular target: T1, Nav 1.7 (Homo sapiens (Human), UniProt Q15858); test: Nav 1.7 IWQ in vitro assay (IonWorks Quattro population patch-clamp); settings: 293 cells stably transfected with Nav 1.7
T1 sequence (Q15858 whole entry): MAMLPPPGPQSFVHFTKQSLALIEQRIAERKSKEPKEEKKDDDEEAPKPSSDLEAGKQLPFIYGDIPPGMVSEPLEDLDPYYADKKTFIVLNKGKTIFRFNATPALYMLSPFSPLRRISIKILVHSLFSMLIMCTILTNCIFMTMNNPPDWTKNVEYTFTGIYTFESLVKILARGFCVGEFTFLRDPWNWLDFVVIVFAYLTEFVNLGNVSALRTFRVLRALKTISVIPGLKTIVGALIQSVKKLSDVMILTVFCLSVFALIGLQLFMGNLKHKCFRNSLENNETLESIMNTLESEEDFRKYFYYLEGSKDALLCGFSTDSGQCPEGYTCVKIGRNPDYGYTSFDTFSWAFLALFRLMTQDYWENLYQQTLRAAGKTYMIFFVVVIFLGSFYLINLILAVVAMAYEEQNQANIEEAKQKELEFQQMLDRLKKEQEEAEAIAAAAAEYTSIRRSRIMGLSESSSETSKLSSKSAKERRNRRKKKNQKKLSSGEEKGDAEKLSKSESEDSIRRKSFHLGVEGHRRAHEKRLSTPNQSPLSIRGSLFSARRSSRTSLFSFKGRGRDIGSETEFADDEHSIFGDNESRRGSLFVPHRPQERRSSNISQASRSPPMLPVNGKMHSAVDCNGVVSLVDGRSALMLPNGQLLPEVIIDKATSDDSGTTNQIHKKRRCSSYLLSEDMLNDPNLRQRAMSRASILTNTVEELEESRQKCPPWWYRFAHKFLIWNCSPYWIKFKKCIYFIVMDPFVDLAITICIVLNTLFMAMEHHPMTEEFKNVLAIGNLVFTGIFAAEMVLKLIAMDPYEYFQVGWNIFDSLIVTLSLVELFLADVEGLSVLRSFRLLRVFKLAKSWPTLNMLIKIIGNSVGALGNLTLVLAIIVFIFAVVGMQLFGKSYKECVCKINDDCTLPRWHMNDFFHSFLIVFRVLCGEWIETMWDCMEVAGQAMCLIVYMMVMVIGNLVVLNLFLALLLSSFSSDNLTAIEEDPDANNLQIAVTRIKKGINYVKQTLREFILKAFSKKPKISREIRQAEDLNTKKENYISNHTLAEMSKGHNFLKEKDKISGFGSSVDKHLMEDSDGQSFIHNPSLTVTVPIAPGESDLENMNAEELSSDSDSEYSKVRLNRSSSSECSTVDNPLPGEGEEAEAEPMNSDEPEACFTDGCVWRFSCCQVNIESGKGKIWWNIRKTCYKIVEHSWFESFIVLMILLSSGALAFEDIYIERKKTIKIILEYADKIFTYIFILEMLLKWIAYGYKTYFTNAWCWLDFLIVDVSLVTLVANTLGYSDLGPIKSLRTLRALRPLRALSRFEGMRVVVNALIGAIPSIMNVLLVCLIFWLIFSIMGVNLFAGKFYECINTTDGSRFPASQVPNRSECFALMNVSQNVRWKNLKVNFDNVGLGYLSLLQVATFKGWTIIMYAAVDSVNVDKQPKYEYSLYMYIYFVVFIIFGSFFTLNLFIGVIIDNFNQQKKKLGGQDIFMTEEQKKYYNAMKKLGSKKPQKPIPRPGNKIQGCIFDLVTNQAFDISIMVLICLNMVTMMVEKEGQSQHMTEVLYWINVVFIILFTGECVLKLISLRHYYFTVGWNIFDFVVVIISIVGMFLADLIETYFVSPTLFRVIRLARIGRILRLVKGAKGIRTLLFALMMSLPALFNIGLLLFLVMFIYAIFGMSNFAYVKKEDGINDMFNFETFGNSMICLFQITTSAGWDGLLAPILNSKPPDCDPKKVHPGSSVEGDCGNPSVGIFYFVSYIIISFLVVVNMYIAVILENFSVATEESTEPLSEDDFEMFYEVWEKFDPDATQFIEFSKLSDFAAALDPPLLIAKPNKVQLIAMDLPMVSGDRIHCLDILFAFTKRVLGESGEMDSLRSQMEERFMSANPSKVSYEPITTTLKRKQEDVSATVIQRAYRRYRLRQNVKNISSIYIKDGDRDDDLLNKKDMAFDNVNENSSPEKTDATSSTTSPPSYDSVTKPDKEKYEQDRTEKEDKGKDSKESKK
Outline: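 HEK293 cells stably expressing Nav 1.7, recorded by automated population patch-clamp with a train of depolarizations producing increasing inactivation. Single compound concentration added during 3–8 min unclamped period, then same protocol repeated. Leak-corrected current at 26th pulse to −20 mV gave percent block (duplicate); IC50 fitted from concentration–block curves.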

Nav 1.7 [2] = molecular target: T1, Nav 1.7; test: Nav 1.7 in vitro PX assay (PatchXpress whole cell voltage clamp); settings: 293 cells, human Nav1.7, partially inactivated state; read-out: Nav1.7 PX IC50 IP
Outline: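 HEK293 cells stably expressing human Nav1.7, whole-cell voltage clamp on PatchXpress, held at potential giving 20–50% inactivation; current elicited by 20 msec pulse to −10 mV.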

[3] = first part of table, read-out: Nav 1.5 PX IC50
[4] = first part of table, read-out: Nav 1.7 IWQ IC50
[5] = second part of table, read-out: Nav1.5 PX IC50
[6] = second part of table, read-out: Nav1.7 IWQ IC50 IP

Sequence of Nav 1.5 (Q14524 whole entry): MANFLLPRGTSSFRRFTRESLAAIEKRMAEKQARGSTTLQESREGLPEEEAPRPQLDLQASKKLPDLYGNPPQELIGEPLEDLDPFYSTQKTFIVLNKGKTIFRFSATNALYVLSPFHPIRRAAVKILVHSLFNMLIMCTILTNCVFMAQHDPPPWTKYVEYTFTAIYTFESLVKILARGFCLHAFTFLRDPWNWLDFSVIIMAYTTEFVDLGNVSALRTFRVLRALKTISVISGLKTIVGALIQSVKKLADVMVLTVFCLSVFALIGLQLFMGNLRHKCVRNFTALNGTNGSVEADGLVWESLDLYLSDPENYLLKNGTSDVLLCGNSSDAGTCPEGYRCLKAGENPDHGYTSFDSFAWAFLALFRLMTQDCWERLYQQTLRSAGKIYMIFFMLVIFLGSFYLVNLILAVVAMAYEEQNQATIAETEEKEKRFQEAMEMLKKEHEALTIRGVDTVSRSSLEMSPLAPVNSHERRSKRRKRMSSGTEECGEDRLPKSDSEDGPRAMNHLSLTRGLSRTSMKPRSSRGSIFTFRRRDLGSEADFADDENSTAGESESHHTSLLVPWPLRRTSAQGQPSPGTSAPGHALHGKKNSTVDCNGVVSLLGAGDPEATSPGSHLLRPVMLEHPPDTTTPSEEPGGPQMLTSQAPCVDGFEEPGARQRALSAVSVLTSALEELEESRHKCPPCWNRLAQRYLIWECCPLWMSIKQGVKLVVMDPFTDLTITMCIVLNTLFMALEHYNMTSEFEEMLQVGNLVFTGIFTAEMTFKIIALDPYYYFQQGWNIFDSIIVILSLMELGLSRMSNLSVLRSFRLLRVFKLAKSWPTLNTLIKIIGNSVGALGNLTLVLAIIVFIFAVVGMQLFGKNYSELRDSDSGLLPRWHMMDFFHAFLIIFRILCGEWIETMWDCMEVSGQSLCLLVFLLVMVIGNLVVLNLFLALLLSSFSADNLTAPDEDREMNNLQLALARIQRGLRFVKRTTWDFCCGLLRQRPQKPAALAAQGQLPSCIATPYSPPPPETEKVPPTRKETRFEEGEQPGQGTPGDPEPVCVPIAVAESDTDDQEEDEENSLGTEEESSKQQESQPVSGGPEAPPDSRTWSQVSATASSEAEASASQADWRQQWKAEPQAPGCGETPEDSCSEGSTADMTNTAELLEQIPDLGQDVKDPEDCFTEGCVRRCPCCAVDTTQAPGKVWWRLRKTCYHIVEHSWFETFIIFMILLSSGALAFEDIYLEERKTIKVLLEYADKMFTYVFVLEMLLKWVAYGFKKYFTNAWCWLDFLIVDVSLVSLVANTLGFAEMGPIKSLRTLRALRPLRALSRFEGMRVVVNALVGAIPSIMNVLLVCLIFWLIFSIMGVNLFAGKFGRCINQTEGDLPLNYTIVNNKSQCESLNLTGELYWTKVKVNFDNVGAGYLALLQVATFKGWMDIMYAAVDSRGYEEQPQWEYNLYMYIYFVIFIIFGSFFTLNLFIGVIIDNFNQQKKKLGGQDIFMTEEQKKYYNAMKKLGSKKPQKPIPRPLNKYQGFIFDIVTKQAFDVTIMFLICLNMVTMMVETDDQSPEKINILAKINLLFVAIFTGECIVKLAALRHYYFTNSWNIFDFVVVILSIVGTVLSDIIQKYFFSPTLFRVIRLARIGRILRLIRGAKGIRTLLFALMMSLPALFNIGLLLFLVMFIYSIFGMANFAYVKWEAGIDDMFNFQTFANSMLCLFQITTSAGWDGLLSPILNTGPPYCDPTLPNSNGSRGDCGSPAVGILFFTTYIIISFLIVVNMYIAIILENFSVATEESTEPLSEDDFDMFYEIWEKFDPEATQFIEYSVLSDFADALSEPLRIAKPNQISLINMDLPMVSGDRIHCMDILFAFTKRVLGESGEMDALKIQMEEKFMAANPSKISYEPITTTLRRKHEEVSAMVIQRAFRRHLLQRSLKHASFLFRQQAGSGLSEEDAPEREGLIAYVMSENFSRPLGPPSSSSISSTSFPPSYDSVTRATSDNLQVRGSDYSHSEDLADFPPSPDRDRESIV

SMILES	IC50 (Nav 1.7 [1]; [4])	IC50 (Nav 1.7 [1]; [6])	IC50 (Nav 1.7 [2])	IC50 (Nav 1.5; [3])	IC50 (Nav 1.5; [5])
O=S(=O)(Nc1ncns1)c1ccc2c(-c3ccc(C(F)(F)F)cc3-c3ccncc3)nccc2c1 [Example 53, 1-(2-(PYRIDIN-4-YL)-4-(TRIFLUOROMETHYL)PHENYL)-N-(1,2,4-THIADIAZOL-5-YL)ISOQUINOLINE-6-SULFONAMIDE]	70 nM			> 30000 nM	
Cn1nccc1-c1cc(C(F)(F)F)ccc1-c1nccc2cc(S(=O)(=O)Nc3ncns3)ccc12 [Example 54, 1-(2-(1-METHYL-1H-PYRAZOL-5-YL)-4-(TRIFLUOROMETHYL)PHENYL)-N-(1,2,4-THIADIAZOL-5-YL)ISOQUINOLINE-6-SULFONAMIDE]	40 nM			> 30000 nM	
COc1cc(C(F)(F)F)ccc1-c1ncnc2cc(S(=O)(=O)Nc3nccs3)ccc12 [Example 261, 4-(2-methoxy-4-(trifluoromethyl)phenyl)-N-(thiazol-2-yl)quinazoline-7-sulfonamide]		10 nM	200 nM		> 30000 nM
COc1cc(C(F)(F)F)ccc1-c1ccnc2cc(S(=O)(=O)Nc3nccs3)ccc12 [Example 276, 4-(2-METHOXY-4-(TRIFLUOROMETHYL)PHENYL)-N-(THIAZOL-2-YL)QUINOLINE-7-SULFONAMIDE]		50 nM	350 nM		12300 nM

Further lines, with some results ahead:

IC50 (Nav 1.7 [1]; [4])	IC50 (Nav 1.7 [1]; [6])	IC50 (Nav 1.7 [2])	SMILES	IC50 (Nav 1.5; [3])	IC50 (Nav 1.5; [5])
10 nM			O=S(=O)(Nc1ncns1)c1ccc2c(-c3ccc(C(F)(F)F)cc3-c3cn[nH]c3)nccc2c1 [Example 55, 1-(2-(1H-PYRAZOL-4-YL)-4-(TRIFLUOROMETHYL)PHENYL)-N-(1,2,4-THIADIAZOL-5-YL)ISOQUINOLINE-6-SULFONAMIDE]	> 30000 nM	
	10 nM	134 nM	COc1cc(C(F)(F)F)ccc1-c1nccc2cc(S(=O)(=O)Nc3ncns3)ccc12 [Example 195, 1-(2-METHOXY-4-(TRIFLUOROMETHYL)PHENYL)-N-(1,2,4-THIADIAZOL-5-YL)ISOQUINOLINE-6-SULFONAMIDE]		> 30000 nM
	20 nM	156 nM	COc1cc(-c2cccc(F)c2)ccc1-c1nccc2cc(S(=O)(=O)Nc3ccncn3)ccc12 [Example 199, 1-(3′-FLUORO-3-METHOXY-[1,1′-BIPHENYL]-4-YL)-N-(PYRIMIDIN-4-YL)ISOQUINOLINE-6-SULFONAMIDE 2,2,2-TRIFLUOROACETATE]		> 30000 nM
